# Assay results reported in PMC7898615 (Chemistry (Weinheim an Der Bergstrasse, Germany), 2020).
# Target: T1, tryptophan synthase (TS) complex, TrpA:TrpB (Salmonella enterica, UniProt P0A2K1)
# T1 sequence (P0A2K1 1-397): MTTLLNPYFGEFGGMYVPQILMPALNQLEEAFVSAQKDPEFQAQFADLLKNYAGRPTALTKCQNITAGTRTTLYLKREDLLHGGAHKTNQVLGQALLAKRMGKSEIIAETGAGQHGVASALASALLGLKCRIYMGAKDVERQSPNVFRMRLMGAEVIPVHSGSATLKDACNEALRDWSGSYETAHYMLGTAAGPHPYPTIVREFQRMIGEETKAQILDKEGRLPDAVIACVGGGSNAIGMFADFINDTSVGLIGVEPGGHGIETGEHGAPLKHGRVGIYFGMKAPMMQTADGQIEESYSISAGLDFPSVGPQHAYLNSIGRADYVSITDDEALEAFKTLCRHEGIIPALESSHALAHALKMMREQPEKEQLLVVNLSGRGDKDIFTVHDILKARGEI
# T1 sequence (P00929 1-268 partner): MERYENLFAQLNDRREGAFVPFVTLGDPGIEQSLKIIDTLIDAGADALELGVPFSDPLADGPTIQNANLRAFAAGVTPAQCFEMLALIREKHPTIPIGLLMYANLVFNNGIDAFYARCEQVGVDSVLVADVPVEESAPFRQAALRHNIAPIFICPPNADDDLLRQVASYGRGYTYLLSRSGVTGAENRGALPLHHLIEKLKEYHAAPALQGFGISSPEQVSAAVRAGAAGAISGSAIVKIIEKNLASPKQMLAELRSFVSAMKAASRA
# Experiment: coupled VioA/HRP assay of Trp formation, […] nm, global fit
# Assay type: biochemical
row,Compound,Ki [µM]
1,"O=C(NCCCCOP(=O)(O)O)c1ccc(/N=N\c2ccccc2)cc1 [4d, 4 d (Z isomer)]",> 4000
2,"O=C(NCCCCOP(=O)(O)O)c1ccc(/N=N/c2ccccc2)cc1 [4d, (E)‐4‐(4‐(phenyldiazenyl)benzamido)butyl dihydrogen phosphate]",640 ± 80
3,"O=C(NCCCCCCOP(=O)(O)O)c1ccc(/N=N\c2ccccc2)cc1 [4f, 4 f (Z isomer)]",100 ± 10

# Results, then the compound that gave them:
row,Ki [µM],Compound
1,930 ± 420,"O=C(NCCCCCOP(=O)(O)O)c1ccc(/N=N\c2ccccc2)cc1 [4e, 4 e (Z isomer)]"
2,180 ± 40,"O=C(NCCCCCOP(=O)(O)O)c1ccc(/N=N/c2ccccc2)cc1 [4e, (E)‐5‐(4‐(phenyldiazenyl)benzamido)pentyl dihydrogen phosphate]"
3,50,"O=C(NCCCCCCOP(=O)(O)O)c1ccc(/N=N/c2ccccc2)cc1 [4f, (E)‐6‐(4‐(phenyldiazenyl)benzamido)hexyl dihydrogenphosphate]"
